Key:
Assay type in all cases: cell-based
MDA-MB-231 (breast) = experiment: In vitro cell proliferation assay (SRB), MDA-MB-231; details: Homo sapiens, SRB method, 96 hours, read-out: Inhibition of cell growth (IC50, μM) MDA-MB-231
Experimental: (§1) Cancer cell lines to determine the effect of 5, 6, or 7-substituted-3-(hetero)arylisoquinolinamine compounds were obtained from the following sources: Human MDA-MB-231 (breast), PC3 (prostate), HCT-15 (colon), HCT116 (colon), OVCAR-3 (ovary), Caki-1 (kidney), PANC-1 (pancreas), SNB-19 (glioblastoma) and SK-MEL-28 (melanoma) from the American Type Culture Collection (ATCC) (Manassas, Va.). PC3, OVCAR-3, SK-MEL-28 and SNB-19 were grown in RPMI1640 medium (Invitrogen, Carlsbad, Calif.) supplemented with 10% fetal bovine serum (“FBS”), 1 mM sodium pyruvate, 10 mM HEPES and 100 U/ml penicillin and 100 μg/ml streptomycin (“P/S”). MDA-MB-231, Caki-1, HCT-15 (colon) and PANC-1 cells were maintained in Dulbecco's modified Eagle's medium (“DMEM”, Invitrogen) supplemented with 10% FBS, P/S and 10 mM HEPES. HCT116 cells were maintained in DMEM supplemented with 10% FBS, P/S and 10 mM HEPES for in vitro cell proliferation assay and in RPMI1640 medium supplemented with 10% FBS, 1 mM sodium pyruvate, 10 mM HEPES and P/S for in vitro cell cycle analysis. All cells were incubated at 37° C. under humidified 5% CO2.
(§2) The growth inhibition of the 5, 6, or 7-substituted-3-(hetero)arylisoquinolinamine derivatives against a variety of human tumor cells was evaluated to study the relative importance of particular substituent groups on the compounds. The 5, 6, or 7-substituted-3-(hetero)arylisoquinolinamine derivatives, prepared as described above, were tested with DMSO as a control.
(§3) The growth inhibition assay of representative 5, 6, or 7-substituted-3-(hetero)arylisoquinolinamine derivatives against human tumor cell lines was performed using the Sulforhodamine B (“SRB”) method (Skehan et al., J. National Cancer Institute, 82: 1107-1112 (1990)). Briefly, exponentially growing tumor cells were seeded into a 96-well plate at a density of 2-3×10^3 cells/well and treated with 5, 6, or 7-substituted-3-(hetero)arylisoquinolinamine compounds the next day. Triplicate wells were used for each treatment. The cells were incubated with the various compounds for 96 hours at 37° C. in a humidified 5% CO2 atmosphere. After 96-hour incubation, cells were fixed with 10% trichloroacetic acid (“TCA”), incubated for 1 hour at 4° C., and washed 3 times with tap water. Subsequently, cells were stained with 0.4% sulforhodamine B in 1% acetic acid for 30 minutes, washed 4 times with 1% acetic acid, and air-dried again. After 5 minutes agitation in 10 mM Tris solution, the absorbance of each well was measured at 530 nm using Benchmark Plus Microplate reader (Bio-Rad Laboratories, Hercules, Calif.).
(§4) To translate the OD530 values into the number of live cells in each well, the OD530 values were compared to those on standard OD530-versus-cell number curves generated for each cell line. The percent survival was calculated using the formula: % Survival=live cell number [test]/live cell number [control]×100
(§5) The IC50 values were calculated by non-linear regression analysis.

PANC-1 (pancreas) = experiment: In vitro cell proliferation assay (SRB), PANC-1; details: Homo sapiens, SRB method, 96 hours, read-out: Inhibition of cell growth (IC50, μM) PANC-1
Experimental: as §1, §2, §3, §4, §5

HCT116 (colon) = experiment: In vitro cell proliferation assay (SRB), HCT116; details: Homo sapiens, HCT-116; SRB method, 96 hours; Table 3; read-out: Inhibition of cell growth (IC50, μM) HCT116
Experimental: as §1, §2, §3, §4, §5

PC3 (prostate) = experiment: In vitro cell proliferation assay (SRB), PC3; details: Homo sapiens; SRB method, 96 hours; read-out: Inhibition of cell growth (IC50, μM) PC3
Experimental: as §1, §2, §3, §4, §5

OVCAR-3 (ovary) = experiment: In vitro cell proliferation assay (SRB), OVCAR3; details: Homo sapiens, SRB method, 96 hours, read-out: Inhibition of cell growth (IC50, μM) OVCAR3
Experimental: as §1, §2, §3, §4, §5

SK-MEL-28 (melanoma) = experiment: In vitro cell proliferation assay (SRB), SK-MEL-28; details: Homo sapiens, SRB method, 96 hours, read-out: Inhibition of cell growth (IC50, μM) SK-MEL-28
Experimental: as §1, §2, §3, §4, §5

Caki-1 (kidney) = experiment: In vitro cell proliferation assay (SRB), Caki-1; details: Homo sapiens, SRB method, 96 hours, read-out: Inhibition of cell growth (IC50, μM) Caki-1
Experimental: as §1, §2, §3, §4, §5

SNB-19 (glioblastoma) = experiment: In vitro cell proliferation assay (SRB), SNB19; details: Homo sapiens, SRB method, 96 hours, read-out: Inhibition of cell growth (IC50, μM) SNB19
Experimental: as §1, §2, §3, §4, §5

IC50 (MDA-MB-231 (breast)) [µM]	IC50 (PANC-1 (pancreas)) [µM]	IC50 (HCT116 (colon)) [µM]	IC50 (PC3 (prostate)) [µM]	IC50 (OVCAR-3 (ovary)) [µM]	IC50 (SK-MEL-28 (melanoma)) [µM]	IC50 (SNB-19 (glioblastoma)) [µM]	SMILES	IC50 (Caki-1 (kidney)) [µM]
0.34	0.65	0.45	0.77	0.27	0.46	0.63	COc1ccc2c(N)nc(-c3ccccc3)cc2c1 [Compound 11, 6-methoxy-3-phenylisoquinolin-1-amine]	0.47
0.44	0.93	0.67	> 3	0.49	0.8	1.13	COc1ccccc1-c1cc2cc(C)ccc2c(N)n1 [Compound 24, 3-(2-Methoxyphenyl)-6-methylisoquinolin-1-amine]	0.35
0.93	2.27	1.36	2.98	0.79	1.8	2.23	COc1ccc(-c2cc3cc(C)ccc3c(N)n2)cc1 [Compound 26, 3-(4-Methoxyphenyl)-6-methylisoquinolin-1-amine]	0.75
0.66	1.75	0.85	2.69	0.57	1.41	2.15	COc1ccc(-c2cc3cc(C)ccc3c(N)n2)cc1OC [Compound 27, 3-(3,4-Dimethoxyphenyl)-6-methylisoquinolin-1-amine]	0.51
0.18	0.38	0.24	0.43	0.18	0.41	0.47	COc1cc(OC)cc(-c2cc3cc(C)ccc3c(N)n2)c1 [Compound 30, 3-(3,5-Dimethoxyphenyl)-6-methylisoquinolin-1-amine]	0.16
0.55	1.59	0.7	1.84	0.57	1.07	1.51	Cc1ccc2c(N)nc(-c3ccccc3F)cc2c1 [Compound 33, 3-(2-Fluorophenyl)-6-methylisoquinolin-1-amine]	0.46
0.57	1.28	0.59	1.19	0.47	0.72	0.75	Cc1cccc(-c2cc3cc(C)ccc3c(N)n2)c1 [Compound 35, 6-Methyl-3-m-tolylisoquinolin-1-amine]	0.69
0.32	0.68	0.47	1.01	0.51	0.67	0.78	COc1ccccc1-c1cc2ccc(C)cc2c(N)n1 [Compound 37, 3-(2-Methoxyphenyl)-7-methylisoquinolin-1-amine]	0.22
0.17	0.47	0.21	0.42	0.24	0.41	0.48	COc1cccc(-c2cc3ccc(C)cc3c(N)n2)c1 [Compound 38, 3-(3-Methoxyphenyl)-7-methylisoquinolin-1-amine]	0.14
0.72	2.14	1.22	2.76	0.91	1.62	2.2	Cc1ccc2cc(-c3ccccc3F)nc(N)c2c1 [Compound 41, 3-(2-Fluorophenyl)-7-methylisoquinolin-1-amine]	0.59
0.21	0.69	0.28	0.71	0.29	0.5	0.53	Cc1cccc(-c2cc3ccc(C)cc3c(N)n2)c1 [Compound 49, 7-Methyl-3-m-tolylisoquinolin-1-amine]	0.44
0.44	0.67	0.52	0.58	0.27	0.75	0.71	COc1cc2cc(-c3ccccc3)nc(N)c2cc1OC [Compound 51, 6,7-Dimethoxy-3-phenylisoquinolin-1-amine]	0.59
